Data as given in PMC7363885, “Fluorescent artificial receptor-based membrane assay (FARMA) for spatiotemporally resolved monitoring of biomembrane permeability” (Communications Biology, 2020).

Assays:
[1] = FARMA: permeation of analytes into FAR-loaded liposomes (fluorescence, cuvette or stopped-flow); conditions: for membrane permeability (in words): FARMA with FAR-loaded liposomes or GUVs
Text: Elementary physical parameters, such as permeability coefficients, can be extracted from the full kinetic FARMA data. This kinetic profile → parameter mapping requires some assumptions to be made in regard to the permeation mechanism. We applied a reported permeation model for liposomes[31] to arrive at permeation rate constants (kp) and apparent permeability coefficients (Papp). The derivation of the mathematical relation (1), linking the fundamental permeability rate constant and permeability coefficient to experimental measurable kobs rate constants, the known total analyte and total FAR concentration, and the experimentally determined liposome radius (r), is shown in the Supplementary Information.1 Papp=kp⋅r/3=kobs/canalyte⋅cFAR⋅r/3 […]
The volume-to-surface correction factor r/3 accounts for the fact that the observed rates depend on the size, i.e., radius r, of the liposomal assembly. […] The initial-rate method can also be applied, see the Supplementary Information. Moreover, kobs/canalyte can be estimated by single-point measurements at selected canalyte concentration.
A solution of 2.5 mg/mL of POPC and 0.33 mg/mL of POPS in chloroform was purged with nitrogen and dried overnight under […] vacuum. […] The resulting FAR-loaded liposomes were separated from non-encapsulated species by size-exclusion chromatography (NAP-25 column), while maintaining the same buffer. The absence of non-encapsulated FAR was confirmed by adding a non-membrane-permeable species such as tryptophan to a fluorescence cuvette containing 25 µL of liposomes diluted in 1 mL HEPES (10 mM) buffer. Complete removal of non-encapsulated FAR is indicated by the absence of a significant fluorescence change upon Trp addition.
In a typical experiment, 20 µL of liposome solution loaded with FAR was diluted in 1 mL HEPES buffer (10 mM, pH 7.0) in a 1 mL quartz cuvette. An emission spectrum was recorded after 10 min of “equilibration time” on a Varian Eclipse spectrofluorometer thermostated at 22 °C with a water bath using λexc = 400 nm for FAR-1, λexc = 310 nm for FAR-2, and λexc = 330 nm for FAR-3. In the time-resolved experiments, the emission intensity at λobs = 450 nm for FAR-1, λobs = 370 nm for FAR-2, and λobs = 370 and 500 nm for FAR-3 (the latter is the emerging excimer band for certain FAR-3•analyte complexes) was recorded with an averaging time of 0.5 s. […] For single-point experiments, a full spectrum was recorded after a fixed time or several time intervals after analyte addition. […] Only FAR-analyte combinations were used for FARMA, for which no significant autofluorescence and competitive light absorption of the analyte occurred.
For each experiment, measurements from 6 injections were accumulated and the average of these traces was used for data analysis.
Calculation of the unimolecular permeation rate constants ( kp) and of the apparent permeability coefficients (Papp).
The passive diffusion (permeation) of small non-charged compounds follows a modified Fick’s law and can be expressed by a first order kinetics.1 Similar to first order chemical reactions, the kinetics curve can therefore be fitted monoexponentially to obtained the observed permeation rates (kobs). In our assay set-up, such an exponential fit is an approximation, since it neglects that a certain fraction of transported analyte is bound to the FAR and cannot exit the liposome. Nevertheless, the fit of the kinetic curves of the […]
approximation is justified.

FAR-1 = experiment: Fluorescence titration, FAR•analyte complex formation in homogeneous solution; assay type: binding
Method: Fluorescence titrations were carried out in aqueous HEPES buffer (10 mM, pH 7, 22 °C) unless stated otherwise. To a solution of the FAR (typically at 10–30 μM) was stepwise added a solution of the analyte (typically up to 2 mM) and the fluorescence spectra were recorded. The normalized emissions at 450 nm (FAR-1) or at 370 nm (FAR-2) were fitted with an equation for a 1 : 1 binding by a least-square fit. The resulting affinity constants are reported in Supplementary Table 1. Representative titration plots are shown in Supplementary Fig. 1. Note that the high CB8-dye binding affinities correspond to a near quantitative degree of host-dye complexation, i.e., quantitative formation of the FAR, such that the subsequent binding of the analyte can be treated independently.

[2] = FAR-1, 10 mM HEPES buffer (pH 7), 1:1 binding model, error estimate ≤ 20%
[3] = monoexponential fit, analyte 40 µM (bulk), FAR-2 ca. 500 µM in the liposome interior, 20% error

Row | SMILES | Ka (FAR-1; [2]) | kobs [1, 3] [s–1] | kobs ([1]; source data of Fig. 5) | log(kobs) ([1]; source data of Fig. 5) | further results
1 | Oc1ccccc1O [1,2-dihydroxybenzene] | 20 10^3 M−1 | – | – | – | membrane permeability (in words) [1]: “instantaneously” permeating
2 | O=C1C=CC(=O)C=C1 [1,4-benzoquinone] | 0.5 10^3 M−1 | – | – | – | –
3 | O=P(O)(O)Oc1ccc2ccccc2c1 [2-naphthyl phosphate] | – | – | – | – | membrane permeability (in words) [1]: membrane-impermeable
4 | Cc1ccccc1O [2Me-phenol, 2-methylphenol] | – | 0.33 | 0.33 | -0.4815 | –
5 | O=C(O)C(=O)Cc1ccc(O)cc1 [4-hydroxyphenylpyruvic acid] | 17 10^3 M−1 | – | – | – | –
6 | Nc1ccc(Br)cc1 [4Br-aniline, 4-bromoaniline] | – | 4.0 | 4 | 0.6021 | –
7 | N#Cc1ccc(N)cc1 [4CN-aniline, 4-cyanoaniline] | – | 6.5 | 6.5 | 0.8129 | –
8 | Nc1ccc(Cl)cc1 [4Cl-aniline, 4-chloroaniline] | – | 4.0 | 4 | 0.6021 | –
9 | Oc1ccc(Cl)cc1 [4Cl-phenol, 4-chlorophenol] | – | 2.2 | 2.2 | 0.3424 | –
10 | CCc1ccc(O)cc1 [4Et-phenol, 4-ethylphenol] | 1.2 10^3 M−1 | 0.24 | 0.24 | -0.6198 | –
11 | Nc1ccc(F)cc1 [4F-aniline] | – | 4.4 | 4.4 | 0.6434 | –
12 | Oc1ccc(F)cc1 [4F-phenol] | – | 2.8 | 2.8 | 0.4472 | –
13 | Nc1ccc(I)cc1 [4I-aniline] | – | 3.1 | 3.1 | 0.4914 | –
14 | Oc1ccc(I)cc1 [4I-phenol, 4-iodophenol] | – | 0.69 | 0.69 | -0.1611 | –
15 | O=[N+]([O-])c1ccc(O)cc1 [4NO2-phenol] | – | 38 | 38 | 1.58 | –
16 | N[C@@H](Cc1c[nH]c2ccc(O)cc12)C(=O)O [5HO-Trp, 5-hydroxy tryptophan] | 7.7 10^3 M−1 | – | – | – | –
17 | CN(C)c1ccc(C#N)cc1 [DMABN, 4-(N,N-dimethylamino) benzonitrile] | – | 0.68 | 0.68 | -0.1675 | –
18 | O=C1CCC(=O)N1c1ccccc1 [N-phenylsuccinimide] | 30 10^3 M−1 | 1.1 | 1.1 | 0.04139 | –
19 | CC(=O)NC(Cc1c[nH]c2ccccc12)C(=O)O (centres unmarked) [NAc-Trp] | 50 10^3 M−1 | – | – | – | –

Row | SMILES | Ka (FAR-1; [2]) | kobs [1, 3] [s–1] | kobs ([1]; source data of Fig. 5) | log(kobs) ([1]; source data of Fig. 5) | further results
20 | COC(=O)[C@@H](N)Cc1c[nH]c2ccccc12 [TrpOMe, tryptophan methyl ester] | 14 10^3 M−1 | – | – | – | membrane permeability (in words) [1]: rather quickly permeating
21 | CNC[C@H](O)c1ccc(O)c(O)c1 [adrenaline] | < 1 10^3 M−1 | – | – | – | membrane permeability (in words) [1]: very slowly permeating
22 | c1ccccc1 [benzene] | 4 10^3 M−1 | – | – | – | –
23 | c1ccc2[nH]cnc2c1 [benzimidazole] | 7.5 10^3 M−1 | 2.7 | 2.7 | 0.4314 | –
24 | CC(C)(O/N=C(\C(=O)N[C@@H]1C(=O)N2C(C(=O)[O-])=C(C[n+]3ccccc3)CS[C@H]12)c1csc(N)n1)C(=O)O [ceftazidime, reference compound] | < 1 10^3 M−1 | – | – | – | –
25 | O=C(N[C@H](CO)[C@H](O)c1ccc([N+](=O)[O-])cc1)C(Cl)Cl [chloramphenicol, reference compound] | < 1 10^3 M−1 | – | – | – | –
26 | NCCc1ccc(O)c(O)c1 [dopamine] | 0.10 10^3 M−1 | – | – | – | membrane permeability (in words) [1]: very slowly permeating
27 | O=C(O)Cc1cc(O)ccc1O [homogentisic acid] | – | – | – | – | Ka (FAR-1; pH 7): 0.14
28 | c1ccc2[nH]ncc2c1 [indazole] | – | 2.4 | 2.4 | 0.3802 | –
29 | c1ccc2ccccc2c1 [naphthalene] | > 50 10^3 M−1 | – | – | – | membrane permeability (in words) [1]: permeating
30 | COc1ccc2cc([C@H](C)C(=O)O)ccc2c1 [naproxen, reference compound] | 2 10^3 M−1 | – | – | – | –
31 | CC(=O)Nc1ccc(O)cc1 [paracetamol, reference compound] | 7 10^3 M−1 | – | – | – | –
32 | Nc1c(F)c(F)c(F)c(F)c1F [pentafluoroaniline] | – | 0.51 | 0.51 | -0.2924 | –
33 | NCCc1ccccc1 [phenethylamine] | 8 10^3 M−1 | 0.22 | 0.22 | -0.6576 | –
34 | OC[C@H]1O[C@@H](Oc2ccccc2)[C@H](O)[C@@H](O)[C@H]1O [phenyl-β-D-galactopyranoside] | 30 10^3 M−1 | – | – | – | membrane permeability (in words) [1]: slowly permeating; time of FARMA signal response (t) ([1]; slow response, without enzyme): > 5 min
35 | CCCN(CCOc1c(Cl)cc(Cl)cc1Cl)C(=O)n1ccnc1 [prochloraz] | 2.8 10^3 M−1 | – | – | – | –
36 | CCC(=O)Nc1ccc(Cl)c(Cl)c1 [propanil] | 8 10^3 M−1 | 42 | 42 | 1.623 | –
37 | c1ccc2ncccc2c1 [quinoline] | 2.2 10^3 M−1 | – | – | – | –
38 | C=C(C)[C@H]1Cc2c(ccc3c2O[C@@H]2COc4cc(OC)c(OC)cc4[C@@H]2C3=O)O1 [rotenone] | 4.8 10^3 M−1 | – | – | – | –
